The values that follow come from ChEMBL document CHEMBL1201862, “PubChem BioAssay data set” (2004).

Assay in all cases: NCI-60 cell line screen, 48 h
Assay [1] has as its system LOX IMVI.
For assay [2], the system named is A549.
Assay [3] deals with EKVX.
Assay [4] deals with OVCAR-8.
The subject of assay [5] is ACHN.
The subject of assay [6] is TK-10.
In assay [7] the test system is SK-MEL-28.
In assay [8] the test system is Malme-3M.
Assay [9] relates to HOP-92.
Assay [10] relates to NCI-H226.
Assay [11] has as its system HT-29.
Assay [12] relates to SNB-75.
The subject of assay [13] is NCI-H460.
In assay [14] the test system is HOP-62.
For assay [15], the system named is U-251.
Assay [16] deals with OVCAR-5.
Assay [17] concerns OVCAR-3.

SMILES strings stand for the structures.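 Compound exposure: 48 hours, 5 concentrations, 96-well plates. Abbreviation: GI50, concentration required for 50% inhibition of growth.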 Calls of active or inactive are those of the source. No stated cut-off is given here; in the data, active = GI50 up to about 1.1 µM and inactive = higher.

As for `N=C(N)Nc1nc2cc(N)ccc2o1`, the GI50 in assay [1], in [2], in assay [3], in assay [4], in assay [5] and in assay [6] was > 100 µM (inactive) in each case. The GI50 in assay [7], in assay [8], in assay [9], in [10], in assay [11] and in assay [12] was > 100 µM (inactive) throughout. Also, the GI50 in assay [13], in assay [14] and in [15] was > 100 µM (inactive) each time.

On to `CCOCN/C(N)=N\C#N`, for which the GI50 in assay [1] is 12.1 µM (inactive); in assay [2], > 100 µM (inactive); in assay [3], > 100 µM (inactive); in assay [4], > 100 µM (inactive); in assay [5], > 100 µM (inactive); in assay [6], > 100 µM (inactive). The GI50 in assay [7], in assay [8], in assay [16], in [9], in assay [10] and in [11] was > 100 µM (inactive) throughout. Further, the GI50 in assay [12], in assay [13], in [17], in assay [14] and in assay [15] was > 100 µM (inactive) throughout.

As to `COC1C(O)CC(OC2CC(OC3CC(O[C@@H]4C(=O)c5c(cc6cc(OC7CC(OC8CC(O)C(O)C(C)O8)C(O)C(C)O7)c(C)c(O)c6c5O)C[C@H]4[C@H](OC)C(=O)[C@@H](O)[C@@H](C)O)OC(C)C3O)OC(C)C2O)OC1C` (stereo partly specified), the GI50 in [2] is < 0.0151 µM (active); in assay [3], 0.034 µM (active); in assay [4], < 0.0193 µM (active); in [5], < 0.0191 µM (active); in assay [6], 0.0431 µM (active); in [7], < 0.0126 µM (active). The GI50 in assay [8] is < 0.0126 µM (active); in [16] it was < 0.0175 µM (active); in assay [9], < 0.014 µM (active); in assay [10] it was < 0.104 µM (active); in assay [11], < 0.0168 µM (active); in assay [12] it was < 0.0331 µM (active). The GI50 in [13] is < 0.01 µM (active); in [17], < 0.0271 µM (active); in [14], < 0.012 µM (active); in [15] it was 0.0112 µM (active).

As to `NC1=Nc2ccccc2Sc2ccccc21`, the GI50 in assay [1], in [2], in assay [3], in assay [4], in assay [5] and in assay [6] was > 100 µM (inactive) in each case. The GI50 in assay [7] is > 100 µM (inactive); in assay [8], > 100 µM (inactive); in assay [16], > 100 µM (inactive); in assay [9], 32.7 µM (inactive); in [10], 24.4 µM (inactive); in [11], > 100 µM (inactive). The GI50 is 16.5 µM (inactive) in assay [12]; > 100 µM (inactive) in assay [13]; > 100 µM (inactive) in assay [17]; > 100 µM (inactive) in assay [14]; > 100 µM (inactive) in assay [15].

Turning to `CN1N=CSC12C(=O)N(c1ccc(Cl)cc1)C(=O)N2c1ccc(Cl)cc1` (stereo unspecified), the GI50 was 3.21 µM (inactive) in assay [1]; 3.46 µM (inactive) in assay [2]; 7.14 µM (inactive) in [3]; 3.51 µM (inactive) in assay [4]; 2.77 µM (inactive) in assay [5]; 3.84 µM (inactive) in assay [6]. Moreover, the GI50 was 4.4 µM (inactive) in [7]; 3.55 µM (inactive) in [8]; 3.15 µM (inactive) in assay [9]; 3.04 µM (inactive) in assay [10]; 3.4 µM (inactive) in assay [11]; 3.99 µM (inactive) in assay [12]. Moreover, the GI50 was 3.27 µM (inactive) in assay [13], 1.43 µM (inactive) in [17], 3.69 µM (inactive) in [14] and 3.67 µM (inactive) in [15].

`CCOc1ccc(NC(=O)C(=O)C(C(=O)c2ccc3ccccc3c2)C2OC(=O)c3ccccc32)cc1` (stereo unspecified): the GI50 in [1] is 15.7 µM (inactive); in assay [2] it was 20.2 µM (inactive); in assay [3], > 100 µM (inactive); in assay [4] it was 17.6 µM (inactive); in assay [5] it was 33.4 µM (inactive); in assay [6] it was 50.7 µM (inactive). Further, the GI50 is 13.6 µM (inactive) in assay [7]; 10.9 µM (inactive) in assay [8]; 30.9 µM (inactive) in [16]; 19.5 µM (inactive) in assay [9]; 3.31 µM (inactive) in assay [10]; 34.4 µM (inactive) in assay [11]. The GI50 in [12] was 15.7 µM (inactive); in assay [13], 5.09 µM (inactive); in assay [17], 16.2 µM (inactive); in [14] it was 17.5 µM (inactive); in assay [15], 5.04 µM (inactive).

In the case of `O=C(C#Cc1ccccc1)NC/C=C/c1ccccc1`, the GI50 is 38.5 µM (inactive) in [1]; 36 µM (inactive) in assay [2]; > 100 µM (inactive) in [3]; 35.2 µM (inactive) in assay [4]; 42.6 µM (inactive) in assay [5]; 47.3 µM (inactive) in assay [6]. For the same molecule, the GI50 in assay [7] was 76.4 µM (inactive); in [8], 49.8 µM (inactive); in assay [16], > 100 µM (inactive); in assay [9], 25.4 µM (inactive); in assay [10] it was 31.6 µM (inactive); in assay [11], 50.2 µM (inactive). Moreover, the GI50 is 17.8 µM (inactive) in assay [12]; 47.9 µM (inactive) in [13]; 33 µM (inactive) in assay [17]; 22.8 µM (inactive) in assay [14]; 39 µM (inactive) in assay [15].

With `C=C1C(=O)C23C(O)C1CCC2C12CO[C@]3(O)[C@@H](O)C1C(C)(C)CCC2O` (stereo partly specified), the GI50 in assay [1] is 16.5 µM (inactive); in assay [2], 18.5 µM (inactive); in assay [3] it was 15 µM (inactive); in assay [4], 7.5 µM (inactive); in [5] it was 14.1 µM (inactive); in [6] it was 19.4 µM (inactive). Also, the GI50 in [7] is 4.45 µM (inactive); in assay [8] it was 5.92 µM (inactive); in assay [16] it was 20.2 µM (inactive); in [9], 3.49 µM (inactive); in assay [10], 18.8 µM (inactive); in assay [11], 13.5 µM (inactive). For the same molecule, the GI50 in assay [12] was 15.7 µM (inactive); in assay [13] it was 11.2 µM (inactive); in [17], 16.4 µM (inactive); in assay [14], 24.4 µM (inactive); in [15], 17.4 µM (inactive).

On to `CCCCCCCCCCCCCP(=O)(O)NCC(N)=O`, for which the GI50 is 51.5 µM (inactive) in [1]; > 100 µM (inactive) in assay [2]; > 100 µM (inactive) in assay [3]; 71.3 µM (inactive) in assay [4]; 28.6 µM (inactive) in assay [5]; 58.3 µM (inactive) in assay [6]. Also, the GI50 in assay [7] is 39.1 µM (inactive); in assay [8], > 100 µM (inactive); in assay [16] it was > 100 µM (inactive); in assay [9], 25.4 µM (inactive); in assay [10], 62.4 µM (inactive); in assay [11], > 100 µM (inactive). For the same molecule, the GI50 in assay [12] is 17.4 µM (inactive); in [13] it was > 100 µM (inactive); in [17] it was 39 µM (inactive); in assay [14], 37.8 µM (inactive); in assay [15], 33.5 µM (inactive).

Take `S=C1NC(c2ccccc2)=NC(Cc2ccccc2)(c2ccccc2)N1c1ccccc1` (stereo unspecified): the GI50 in [1] is 96.6 µM (inactive); in assay [2], 58.9 µM (inactive); in assay [3], > 100 µM (inactive); in [4] it was 41.4 µM (inactive); in assay [5], 97.1 µM (inactive); in [6], > 100 µM (inactive). In addition, the GI50 in assay [7], in assay [8], in assay [16], in [9], in [10] and in assay [11] was > 100 µM (inactive) in each case. For the same molecule, the GI50 in assay [12] is 19.7 µM (inactive); in assay [13], > 100 µM (inactive); in assay [17] it was > 100 µM (inactive); in assay [14], 40.3 µM (inactive).

As to `CC(=O)Nc1c(C)ccc2c1C(=O)c1ccccc1C2=O`, the GI50 in assay [1] was 79.3 µM (inactive); in assay [2], > 100 µM (inactive); in assay [4] it was 82.6 µM (inactive); in assay [5] it was > 100 µM (inactive); in assay [6], > 100 µM (inactive); in assay [8] it was > 100 µM (inactive). Also, the GI50 is > 100 µM (inactive) in assay [16]; > 100 µM (inactive) in assay [9]; > 100 µM (inactive) in assay [10]; > 100 µM (inactive) in assay [11]; 45.7 µM (inactive) in assay [12]; > 100 µM (inactive) in assay [13]. The GI50 in [14] and in assay [15] was > 100 µM (inactive) throughout.

Turning to `CN1CCN(C)C1c1cccc(C2N(C)CCN2C)c1`, the GI50 in assay [1], in [5], in [7], in assay [16], in assay [9] and in assay [10] was > 100 µM (inactive) throughout. Also, the GI50 in assay [11] was > 100 µM (inactive); in [12] it was 48.2 µM (inactive); in assay [13] it was > 100 µM (inactive); in assay [17] it was > 100 µM (inactive); in [14] it was > 100 µM (inactive); in assay [15], > 100 µM (inactive).
